Drawing on patent US10472356B2, “Bicyclic ketone sulfonamide compounds” (AMGEN INC., priority 2015, dated 2019), this text covers IC50 for 18 molecules.

Structures are written as SMILES. Where only a bound is given, the exact number is not on record here.

T1 sequence (Q15858 whole entry): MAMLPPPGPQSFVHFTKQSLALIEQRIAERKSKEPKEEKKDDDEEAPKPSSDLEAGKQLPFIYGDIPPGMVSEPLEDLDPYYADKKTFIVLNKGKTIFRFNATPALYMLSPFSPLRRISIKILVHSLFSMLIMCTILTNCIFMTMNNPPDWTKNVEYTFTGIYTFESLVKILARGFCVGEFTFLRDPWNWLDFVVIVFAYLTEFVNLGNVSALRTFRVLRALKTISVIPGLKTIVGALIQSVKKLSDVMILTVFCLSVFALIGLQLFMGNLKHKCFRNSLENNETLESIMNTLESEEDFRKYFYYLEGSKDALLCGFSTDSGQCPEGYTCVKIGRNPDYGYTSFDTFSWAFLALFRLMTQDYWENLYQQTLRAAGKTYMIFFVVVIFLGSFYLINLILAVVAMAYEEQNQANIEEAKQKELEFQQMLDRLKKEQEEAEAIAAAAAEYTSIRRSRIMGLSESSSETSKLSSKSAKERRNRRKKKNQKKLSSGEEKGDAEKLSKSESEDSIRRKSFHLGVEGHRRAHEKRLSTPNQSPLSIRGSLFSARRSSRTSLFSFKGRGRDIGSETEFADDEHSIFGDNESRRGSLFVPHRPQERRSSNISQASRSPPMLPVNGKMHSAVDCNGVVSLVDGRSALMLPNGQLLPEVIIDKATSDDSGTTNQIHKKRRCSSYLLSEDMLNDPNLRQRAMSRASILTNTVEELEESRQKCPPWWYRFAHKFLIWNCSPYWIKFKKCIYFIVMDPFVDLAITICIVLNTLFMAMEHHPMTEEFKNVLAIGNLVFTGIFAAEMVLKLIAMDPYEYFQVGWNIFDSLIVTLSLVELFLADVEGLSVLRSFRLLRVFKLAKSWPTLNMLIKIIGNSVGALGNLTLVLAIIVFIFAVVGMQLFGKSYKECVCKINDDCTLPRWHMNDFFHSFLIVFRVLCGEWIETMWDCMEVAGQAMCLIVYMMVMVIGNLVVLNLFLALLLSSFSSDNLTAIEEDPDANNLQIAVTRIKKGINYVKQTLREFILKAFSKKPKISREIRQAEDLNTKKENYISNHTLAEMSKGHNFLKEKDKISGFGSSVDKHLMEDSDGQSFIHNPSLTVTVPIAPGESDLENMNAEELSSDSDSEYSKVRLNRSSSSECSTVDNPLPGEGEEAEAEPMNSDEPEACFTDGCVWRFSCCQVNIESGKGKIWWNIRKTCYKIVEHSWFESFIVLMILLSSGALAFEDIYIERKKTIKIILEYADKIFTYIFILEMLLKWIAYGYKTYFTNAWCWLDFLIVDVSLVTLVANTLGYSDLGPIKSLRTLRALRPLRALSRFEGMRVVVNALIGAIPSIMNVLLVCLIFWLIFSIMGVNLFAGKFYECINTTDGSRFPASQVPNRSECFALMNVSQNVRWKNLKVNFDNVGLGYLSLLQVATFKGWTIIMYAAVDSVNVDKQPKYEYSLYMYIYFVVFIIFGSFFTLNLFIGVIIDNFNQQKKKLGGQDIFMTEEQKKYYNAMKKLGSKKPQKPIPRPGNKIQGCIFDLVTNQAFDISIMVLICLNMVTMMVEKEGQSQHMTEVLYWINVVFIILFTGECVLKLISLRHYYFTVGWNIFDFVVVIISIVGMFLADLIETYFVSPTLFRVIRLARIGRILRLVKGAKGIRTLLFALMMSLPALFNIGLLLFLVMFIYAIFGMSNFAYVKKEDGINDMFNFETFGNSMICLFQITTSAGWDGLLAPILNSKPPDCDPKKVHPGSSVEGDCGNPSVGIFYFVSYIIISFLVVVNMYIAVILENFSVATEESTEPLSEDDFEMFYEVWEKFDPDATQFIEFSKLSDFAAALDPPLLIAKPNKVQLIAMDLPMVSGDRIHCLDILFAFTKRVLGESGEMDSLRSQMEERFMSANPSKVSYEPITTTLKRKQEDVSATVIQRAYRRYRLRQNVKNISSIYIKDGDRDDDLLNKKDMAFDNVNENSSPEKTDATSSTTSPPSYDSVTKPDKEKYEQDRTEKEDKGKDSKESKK

The assay concerns the target T1, human Nav1.7 (Homo sapiens, UniProt Q15858).
T1 construct: expressed in transfected cells; host or cells: HEK293
Nature of the assay: Nav 1.7 In Vitro PatchXpress (PX) Assay. It counts as cell-based. The settings on record: HEK 293 cells stably transfected with human Nav1.7; PatchXpress whole cell voltage clamp; partially inactivated state (holding potential yielding 20 to 50% inactivation); read-out: hNav1.7 PX IC50. The method, then: Nav 1.7 In Vitro PatchXpress (PX) Assay
HEK 293 cells stably transfected with human Nav1.7 were recorded in whole cell voltage clamp mode with the PatchXpress automated electrophysiology system (Molecular Devices, LLC, Sunnyvale, Calif.). Compound effects were measured on a partially inactivated state of the sodium channel. Cells were clamped to a holding potential yielding 20 to 50% inactivation. To elicit sodium current, channels were activated by pulsing to −10 mV for 20 msec. This voltage protocol was repeated at a rate of 0.1 Hz throughout the experiment. A single concentration of test compound was applied to cells for a duration of 3 minutes. Peak sodium current was measured at the end of the compound addition period to determine percent inhibition. Three to five cells were tested per concentration, and IC50 curves were fitted to percent inhibition as a function of concentration.
A word on the IC50: it is the concentration that gives 50% inhibition. For `COc1ccc(-c2ccc(C)c(Cl)c2)cc1-n1c2c(ccc1=O)CN(S(=O)(=O)Nc1cccnn1)CC2` (single isomer, unassigned) [Example 55-M, M-1-(3′-chloro-4-methoxy-4′-methyl-3-biphenylyl)-2-oxo-N-3-pyridazinyl-1,5,7,8-tetrahydro-1,6-naphthyridine-6(2H)-sulfonamide], the concentration for half-maximal inhibition (IC50) was over 1000 nM.

Turning to `COc1cc(-c2cc(F)c(F)c(F)c2)c(F)cc1-n1c2c(ccc1=O)CN(S(=O)(=O)Nc1cccnn1)CC2` [Example 46, P-2-oxo-N-3-pyridazinyl-1-(2,3′,4′,5′-tetrafluoro-5-methoxy-4-biphenylyl)-1,5,7,8-tetrahydro-1,6-naphthyridine-6(2H)-sulfonamide], the IC50 was 102 nM.

In the case of `COc1cc(-c2cccc(C(F)(F)F)c2)c(F)cc1-n1c2c(ccc1=O)CN(S(=O)(=O)Nc1cccnn1)CC2` [Example 45, P-1-(2-fluoro-5-methoxy-3′-(trifluoromethyl)-4-biphenylyl)-2-oxo-N-3-pyridazinyl-1,5,7,8-tetrahydro-1,6-naphthyridine-6(2H)-sulfonamide], the IC50 is 29.8 nM.

Turning to `COc1cc(-c2ccc(F)c(Cl)c2)c(F)cc1-n1c2c(ccc1=O)CN(S(=O)(=O)Nc1cccnn1)CC2` [Example 48, P-1-(3′-chloro-2,4′-difluoro-5-methoxy-4-biphenylyl)-2-oxo-N-3-pyridazinyl-1,5,7,8-tetrahydro-1,6-naphthyridine-6(2H)-sulfonamide], the IC50 is 80.3 nM.

Regarding `COc1cc(C(F)(F)F)ccc1-n1c2c(ccc1=O)CN(S(=O)(=O)Nc1ccon1)CC2` (single isomer, unassigned) [Example 26-P, P-N-3-isoxazolyl-1-(2-methoxy-4-(trifluoromethyl)phenyl)-2-oxo-1,5,7,8-tetrahydro-1,6-naphthyridine-6(2H)-sulfonamide], the IC50 was over 1000 nM.

As to `COc1cc(-c2ccc(C)c(Cl)c2)c(F)cc1-n1c2c(ccc1=O)CN(S(=O)(=O)Nc1cccnn1)CC2` [Example 44, P-1-(3′-chloro-2-fluoro-5-methoxy-4′-methyl-4-biphenylyl)-2-oxo-N-3-pyridazinyl-1,5,7,8-tetrahydro-1,6-naphthyridine-6(2H)-sulfonamide], the IC50 came to 73.2 nM.

Regarding `COc1cc(C(F)(F)F)ccc1-n1c2c(ccc1=O)CN(S(=O)(=O)Nc1ccon1)CC2` (single isomer, unassigned) [Example 26-M, M-N-3-isoxazolyl-1-(2-methoxy-4-(trifluoromethyl)phenyl)-2-oxo-1,5,7,8-tetrahydro-1,6-naphthyridine-6(2H)-sulfonamide], the IC50 was over 1000 nM.

With `COc1cc(-c2cc(F)cc(Cl)c2)c(F)cc1-n1c2c(ccc1=O)CN(S(=O)(=O)Nc1ccc(F)cn1)CC2` (single isomer, unassigned) [Example 12-M, M-1-(3′-chloro-2,5′-difluoro-5-methoxy-4-biphenylyl)-N-(5-fluoro-2-pyridinyl)-2-oxo-1,5,7,8-tetrahydro-1,6-naphthyridine-6(2H)-sulfonamide], the IC50 came to 9340 nM.

With `COc1cc(-c2cccc(Cl)c2F)c(F)cc1-n1c2c(ccc1=O)CN(S(=O)(=O)Nc1cccnn1)CC2` [Example 49, P-1-(3′-chloro-2,2′-difluoro-5-methoxy-4-biphenylyl)-2-oxo-N-3-pyridazinyl-1,5,7,8-tetrahydro-1,6-naphthyridine-6(2H)-sulfonamide], the IC50 is 168 nM.

Take `COc1cc(-c2cnc(OC)c(Cl)c2)c(F)cc1-n1c2c(ccc1=O)CN(S(=O)(=O)Nc1cccnn1)CC2` [Example 50, P-1-(4-(5-chloro-6-methoxy-3-pyridinyl)-5-fluoro-2-methoxyphenyl)-2-oxo-N-3-pyridazinyl-1,5,7,8-tetrahydro-1,6-naphthyridine-6(2H)-sulfonamide]: the IC50 was 172 nM.

For `COc1cc(-c2ccc(Cl)c(C)c2)c(F)cc1-n1c2c(ccc1=O)CN(S(=O)(=O)Nc1ccncn1)CC2` [Example 1-P, P-1-(4′-chloro-2-fluoro-5-methoxy-3′-methyl-4-biphenylyl)-2-oxo-N-4-pyrimidinyl-1,5,7,8-tetrahydro-1,6-naphthyridine-6(2H)-sulfonamide], the IC50 turned out to be 29.6 nM.

As for `COc1ccc(-c2cccc(Cl)c2C)cc1-n1c2c(ccc1=O)CN(S(=O)(=O)Nc1cccnn1)CC2` [Example 57-P, P-1-(3′-chloro-4-methoxy-2′-methyl-3-biphenylyl)-2-oxo-N-3-pyridazinyl-1,5,7,8-tetrahydro-1,6-naphthyridine-6(2H)-sulfonamide], the IC50 is 232 nM.

For `COc1cc(-c2cc(F)cc(F)c2)c(F)cc1-n1c2c(ccc1=O)CN(S(=O)(=O)Nc1ccon1)CC2` (single isomer, unassigned) [Example 25-M, M-N-3-isoxazolyl-2-oxo-1-(2,3′,5′-trifluoro-5-methoxy-4-biphenylyl)-1,5,7,8-tetrahydro-1,6-naphthyridine-6(2H)-sulfonamide], the IC50 was over 1000 nM.

In the case of `COc1ccc(-c2ccc(C)c(Cl)c2)cc1-n1c2c(ccc1=O)CN(S(=O)(=O)Nc1cccnn1)CC2` (single isomer, unassigned) [Example 55-P, P-1-(3′-chloro-4-methoxy-4′-methyl-3-biphenylyl)-2-oxo-N-3-pyridazinyl-1,5,7,8-tetrahydro-1,6-naphthyridine-6(2H)-sulfonamide], the IC50 turned out to be 710 nM.

For the molecule `COc1cc(-c2ccc(F)c(C)c2)c(F)cc1-n1c2c(ccc1=O)CN(S(=O)(=O)Nc1ccon1)CC2` (racemic) [Example 22-(Rac), (Rac)-1-(2,4′-difluoro-5-methoxy-3′-methyl-4-biphenylyl)-N-3-isoxazolyl-2-oxo-1,5,7,8-tetrahydro-1,6-naphthyridine-6(2H)-sulfonamide], the IC50 was determined as 255 nM.

Take `COc1cc(C(F)(F)F)ccc1-n1c2c(ccc1=O)CN(S(=O)(=O)Nc1ccon1)CC2` (racemic) [Example 26-(Rac), (Rac)-N-3-isoxazolyl-1-(2-methoxy-4-(trifluoromethyl)phenyl)-2-oxo-1,5,7,8-tetrahydro-1,6-naphthyridine-6(2H)-sulfonamide]: the IC50 is over 1000 nM.

As to `COc1cc(-c2cc(F)cc(F)c2)c(F)cc1-n1c2c(ccc1=O)CN(S(=O)(=O)Nc1ncon1)CC2` (single isomer, unassigned) [Example 17-P, P-N-1,2,4-oxadiazol-3-yl-2-oxo-1-(2,3′,5′-trifluoro-5-methoxy-4-biphenylyl)-1,5,7,8-tetrahydro-1,6-naphthyridine-6(2H)-sulfonamide], the IC50 was over 1000 nM.

`COc1cc(-c2ccc(Cl)c(F)c2)c(F)cc1-n1c2c(ccc1=O)CN(S(=O)(=O)Nc1cccnn1)CC2` [Example 47, P-1-(4′-chloro-2,3′-difluoro-5-methoxy-4-biphenylyl)-2-oxo-N-3-pyridazinyl-1,5,7,8-tetrahydro-1,6-naphthyridine-6(2H)-sulfonamide]: the IC50 was 95.1 nM.
